This is an account of results in patent US6984643B2, “2,5-substituted pyrimidine derivatives-CCR-3 receptor antagonists” (Roche Palo Alto LLC, priority 2002, dated 2006).

The target in one assay is T1, CCR-3 receptor (Homo sapiens, UniProt P51677).
T1 construct: expressed in transfected cells; host or cells: L1.2 (murine pre-B lymphoma line)
T1 sequence (P51677 1-355): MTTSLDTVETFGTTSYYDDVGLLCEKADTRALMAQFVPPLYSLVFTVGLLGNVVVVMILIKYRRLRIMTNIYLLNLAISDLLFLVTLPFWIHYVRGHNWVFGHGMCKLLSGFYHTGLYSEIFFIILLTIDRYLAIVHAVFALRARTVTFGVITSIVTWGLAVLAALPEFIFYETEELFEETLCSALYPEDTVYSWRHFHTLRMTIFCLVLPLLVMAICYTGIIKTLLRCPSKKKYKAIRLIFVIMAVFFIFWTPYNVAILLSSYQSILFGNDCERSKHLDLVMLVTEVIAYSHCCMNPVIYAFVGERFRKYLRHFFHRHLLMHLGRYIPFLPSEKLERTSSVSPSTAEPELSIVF
Briefly: CCR-3 Receptor Binding Assay in vitro (inhibition of 125I eotaxin binding to CCR-3 L1.2 transfectant cells). Particulars: concentration reducing 125I-eotaxin binding to CCR-3 L1.2 transfected cells by 50%; read-out: CCR-3 IC50. The procedure: The CCR-3 antagonistic activity of the compounds of the invention was determined by their ability to inhibit the binding of ^125I eotaxin to CCR-3 L1.2 transfectant cells (see Ponath, P. D. et al., J. Exp. Med., Vol. 183, 2437-2448, (1996)).
The assay was performed in Costar 96-well polypropylene round bottom plates. Test compounds were dissolved in DMSO and then diluted with binding buffer (50 mM HEPES, 1 mM CaCl2, 5 mM MgCl2, 0.5% bovine serum albumin (BSA), 0.02% sodium azide, pH 7.24) such that the final DMSO concentration was 2%. Each well was filled with 25 μl of the test solution or only buffer with DMSO (control samples) followed by the addition of 25 μl of ^125I-eotaxin (100 pmol) (NEX314, New England Nuclear, Boston, Mass.) and 1.5×10^5 of the CCR-3 L1.2 transfected cells in 25 μl binding buffer. The final reaction volume was 75 μl.
After incubating the reaction mixture for 1 h at room temperature, the reaction was terminated by filtering the reaction mixture through polyethylenimine treated Packard Unifilter GF/C filter plate (Packard, Chicago, Ill.). The filters were washed four times with ice cold wash buffer containing 10 mM HEPES and 0.5M sodium chloride (pH 7.2) and dried at 65° C. for approximately 10 min. 25 μl/well of Microscint-20™ scintillation fluid (Packard) was added and the radioactivity retained on the filters was determined by using the Packard TopCount™.
The IC50 value (concentration of test compound required to reduce ^125I-eotaxin binding to the CCR-3 L 1.2 transfected cells by 50%) for compounds in Table I of the invention was between 0.02 and 200 μM, preferably between 0.02 and 10 μM.
Turning to `COc1ccc(-c2cnc(SCC(=O)NCC3CCCN(Cc4ccc5cc[nH]c5c4)C3)nc2)cc1OC` (stereo not shown) [Compound 1], the IC50 amounted to 25 nM. Same read-out and setting: the value for `COc1ccc(-c2cnc(SCC(=O)NCC3CCCN(Cc4ccc(Cl)c(Cl)c4)C3)nc2)cc1OC` (stereo not shown) [Compound 2, N-[1-(3,4-dichloro-benzyl)-piperidin-3-ylmethyl]-2-[5-(3,4-dimethoxy-phenyl)-pyrimidin-2-ylsulfanyl]-acetamide] was 29 nM; that for `COc1ccc(-c2cnc(CCC(=O)NCC3CCCN(Cc4ccc(Br)c(Br)c4)C3)nc2)cc1OC` (stereo not shown) [Compound 8, N-[1-(3,4-dibromo-benzyl)-piperidin-3-ylmethyl]-3-[5-(3,4-dimethoxy-phenyl)-pyrimidin-2-yl]-propionamide] was 107 nM. The same measure, in the same setting: the same measure for `COc1ccc(-c2cnc(CCC(=O)NCC3CCCN(Cc4ccc(Cl)c(Cl)c4)C3)nc2)cc1OC` (stereo not shown) [Compound 9, N-[1-(3,4-dichloro-benzyl)-piperidin-3-ylmethyl]-3-[5-(3,4-dimethoxy-phenyl)-pyrimidin-2-yl]-propionamide]: 152 nM. The same measure, in the same setting: the value for `COc1ccc(-c2cnc(CCC(=O)NCC3CCCN(Cc4ccc(Cl)c(Cl)c4)C3)nc2)cc1OC` (stereo not shown) [Compound 10, N-[1-(3,4-dichloro-benzyl)-piperidin-3-ylmethyl]-3-[5-(3,4-dimethoxy-phenyl)-pyrimidin-2-yl]-propionamide] was 164 nM; that for `COc1ccc(-c2cnc(SCC(=O)NCC3CCCN(Cc4ccc5c(c4)OCO5)C3)nc2)cc1OC` (stereo not shown) [Compound 13, N-(1-benzo[1,3]-dioxol-5-ylmethyl-piperidin-3-ylmethyl]-2-[5-(3,4-dimethoxy-phenyl)-pyrimidin-2-ylsulfanyl]-acetamide] was 205 nM; that for `COc1ccc(-c2cnc(SCC(=O)NCC3CCCN(Cc4ccc5ccccc5c4)C3)nc2)cc1OC` (stereo not shown) [Compound 15, 2-[5-(3,4-dimethoxy-phenyl)-pyrimidin-2-ylsulfanyl]-N-(1-naphthalen-2-yl-methyl-piperidin-3-ylmethyl)-acetamide] was 263 nM. With `COc1ccc(-c2cnc(SCC(=O)NCC3CCCN(Cc4ccc5c(c4)CCC5)C3)nc2)cc1OC` (stereo not shown) [Compound 16, 2-[5-(3,4-dimethoxy-phenyl)-pyrimidin-2-ylsulfanyl]-N-(1-indan-5-ylmethyl-piperidin-3-ylmethyl)-acetamide], the IC50 was 276 nM.

Consider `COc1ccc(-c2cnc(CCC(=O)NCC3CCCN(Cc4cccc(Cl)c4Cl)C3)nc2)cc1` (stereo not shown) [Compound 23, N-[1-(2,3-dichloro-benzyl)-piperidin-3-ylmethyl]-3-[5-(4-methoxy-phenyl)-pyrimidin-2-yl]-propionamide], for which the half-maximal inhibitory concentration (IC50) worked out at 403 nM. Same read-out and setting: the value for `COc1ccc(-c2cnc(OCC(=O)NCC3CCCN(Cc4cccc(Cl)c4Cl)C3)nc2)cc1OC` (stereo not shown) [Compound 26, N-[1-(2,3-dichloro-benzyl)-piperidin-3-ylmethyl]-2-[5-(3,4-dimethoxy-phenyl)-pyrimidin-2-yloxy]-acetamide] was 507 nM; that for `COc1ccc(-c2cnc(SCC(=O)NCC3CCCN(Cc4ccc5cc[nH]c5c4)C3)nc2)cc1` (stereo not shown) [Compound 30] was 731 nM.

For `COc1ccc(-c2cnc(SCC(=O)NCC3CCCN(Cc4ccc(Cl)c(F)c4)C3)nc2)cc1OC` (stereo not shown) [Compound 33, N-[1-(4-chloro-3-fluoro-benzyl)-piperidin-3-ylmethyl]-2-[5-(3,4-dimethoxy-phenyl)-pyrimidin-2-ylsulfanyl]-acetamide], the IC50 stood at 973 nM. The same measure, in the same setting: the same measure for `COc1ccc(-c2cnc(CCC(=O)NCC3CCCN(Cc4ccc5c(c4)CCC5)C3)nc2)cc1OC` (stereo not shown) [Compound 34, 3-[5-(3,4-dimethoxy-phenyl)-pyrimidin-2-yl]-N-(1-indan-5-yl-methyl-piperidin-3-ylmethyl)-propion-amide]: 994 nM. Still for that read-out and setting: the same measure for `COc1ccc(-c2cnc(SCC(=O)NCC3CCCN(Cc4ccccc4)C3)nc2)cc1OC` (stereo not shown) [Compound 36, N-(1-benzyl-piperidin-3-ylmethyl)-2-[5-(3,4-dimethoxy-phenyl)-pyrimidin-2-ylsulfanyl]-acetamide]: 1060 nM; for `O=C(CSc1ncc(-c2ccccc2)cn1)NCC1CCCN(Cc2ccc(O)c(O)c2)C1` (stereo not shown) [Compound 38, N-[1-(3,4-dihydroxy-benzyl)-piperidin-3-ylmethyl]-2-(5-phenyl-pyrimidin-2-ylsulfanyl)-acetamide]: 1350 nM. Same read-out and setting: the value for `COc1ccc(-c2cnc(SCC(=O)NCC3CCCN(Cc4ccc(F)c(F)c4)C3)nc2)cc1` (stereo not shown) [Compound 39, N-[1-(3,4-difluoro-benzyl)-piperidin-3-ylmethyl]-2-[5-(4-methoxy-phenyl)-pyrimidin-2-ylsulfanyl]-acetamide] was 1370 nM. For the compound `COc1ccc(-c2cnc(SCC(=O)NCC3CCCN(Cc4ccc5c(c4)CCC5)C3)nc2)cc1` (stereo not shown) [Compound 40], the IC50 came to 1390 nM. Same read-out and setting: the value for `O=C(CSc1ncc(-c2ccccc2)cn1)NCC1CCCN(Cc2ccc3c(c2)OCO3)C1` (stereo not shown) [Compound 41, N-(1-benzo[1,3]-dioxol-5-ylmethyl-piperidin-3-ylmethyl)-2-(5-phenyl-pyrimidin-2-ylsulfanyl)-acetamide] was 1560 nM; that for `O=C(CSc1ncc(-c2ccccc2)cn1)NCC1CCCN(Cc2ccc(Cl)c(Cl)c2)C1` (stereo not shown) [Compound 42, N-[1-(3,4-dichloro-benzyl)-piperidin-3-ylmethyl]-2-(5-phenyl-pyrimidin-2-ylsulfanyl)-acetamide] was 1560 nM; that for `COc1ccc(-c2cnc(CCC(=O)NCC3CCCN(Cc4ccc5c(c4)OCO5)C3)nc2)cc1` (stereo not shown) [Compound 44, N-(1-benzo[1,3]-dioxol-5-ylmethyl-piperidin-3-ylmethyl)-3-[5-(4-methoxy-phenyl)-pyrimidin-2-yl]-propionamide] was 2080 nM. Still for that read-out and setting: the same measure for `COc1ccc(-c2cnc(OCC(=O)NCC3CCCN(Cc4cccc(Cl)c4Cl)C3)nc2)cc1` (stereo not shown) [Compound 46, N-[1-(2,3-dichloro-benzyl)-piperidin-3-ylmethyl]-2-[5-(4-methoxy-phenyl)-pyrimidin-2-yloxy]-acetamide]: 2110 nM. Regarding `O=C(CSc1ncc(-c2ccccc2)cn1)NCC1CCCN(Cc2ccc(Cl)c(C(F)(F)F)c2)C1` (stereo not shown) [Compound 48, N-[1-(4-chloro-3-trifluoromethyl-benzyl)-piperidin-3-ylmethyl]-2-(5-phenyl-pyrimidin-2-yl-sulfanyl)-acetamide], the IC50 was 2410 nM. On the same count and under the same terms, the value for `O=C(CSc1ncc(-c2ccccc2)cn1)NCC1CCCN(Cc2ccc(F)c(F)c2)C1` (stereo not shown) [Compound 49, N-[1-(3,4-difluoro-benzyl)-piperidin-3-ylmethyl]-2-(5-phenyl-pyrimidin-2-ylsulfanyl)-acetamide] was 2810 nM; that for `COc1ccc(-c2cnc(OCC(=O)NCC3CCCN(Cc4ccc5c(c4)OCO5)C3)nc2)cc1OC` (stereo not shown) [Compound 51, N-(1-benzo[1,3]-dioxol-5-ylmethyl-piperidin-3-ylmethyl)-2-[5-(3,4-dimethoxy-phenyl)-pyrimidin-2-yloxy]-acetamide] was 4640 nM; that for `COc1cccc(-c2cnc(OCC(=O)NCC3CCCN(Cc4cccc(Cl)c4Cl)C3)nc2)c1` (stereo not shown) [Compound 52, N-[1-(2,3-dichloro-benzyl)-piperidin-3-ylmethyl]-2-[5-(3-methoxy-phenyl)-pyrimidin-2-yloxy]-acetamide] was 5740 nM. The same measure, in the same setting: the same measure for `COc1cc(-c2cnc(CCC(=O)NCC3CCCN(Cc4cccc(Cl)c4Cl)C3)nc2)cc(OC)c1OC` (stereo not shown) [Compound 57, N-[1-(2,3-dichloro-benzyl)-piperidin-3-ylmethyl]-3-[5-(3,4,5-trimethoxy-phenyl)-pyrimidin-2-yl]-propionamide]: 12000 nM. The same measure, in the same setting: the value for `COc1cc(-c2cnc(OCC(=O)NCC3CCCN(Cc4ccc(Cl)c(Cl)c4)C3)nc2)cc(OC)c1OC` (stereo not shown) [Compound 58, N-[1-(3,4-dichloro-benzyl)-piperidin-3-ylmethyl]-2-[5-(3,4,5-trimethoxy-phenyl)-pyrimidin-2-yloxy]-acetamide] was 21000 nM.

The assay is the same for the next values; noted with them: stated in text for the compound where Z is —C(═O)—; assay not given; read-out: IC50.
As for `COc1ccc(-c2cnc(SCC(=O)NCC3CCCN(C(=O)CCc4ccc(Cl)cc4)C3)nc2)cc1OC` (racemic) [Compound 70, (±)-N-{1-[3-(4-Chlorophenyl)-propionyl]-piperidin-3-ylmethyl}-2-[5-(3,4-dimethoxy-phenyl)-pyrimidin-2-ylsulfanyl]-acetamide], the IC50 was determined as 1920 nM.

As usually defined, the IC50 is the concentration needed to halve the response being measured.
